Test results taken from ChEMBL document CHEMBL1201862, “PubChem BioAssay data set” (2004).
The source made the active and inactive calls.

Key:
[1] = Trypanosoma cruzi growth suppression in host cells – NIH3T3 host cells, beta-gal luminescence, confirmation (AID 2044); format: functional, cell-based;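 note: intracellular parasites grown in NIH/3T3 mouse fibroblasts as host cells; luminescent beta-galactosidase reporter signal from transgenic T. cruzi replicating inside host cells; inhibitors lower the luminescence signal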
Hexokinase HKDC1 = biological target: T1, Hexokinase HKDC1 (Homo sapiens, UniProt Q2TB90); experiment: activation of HKDC1 glucose phosphorylation – biochemical, W721R variant, dose response (AID 504730); format: functional
T1 sequence (Q2TB90 whole entry): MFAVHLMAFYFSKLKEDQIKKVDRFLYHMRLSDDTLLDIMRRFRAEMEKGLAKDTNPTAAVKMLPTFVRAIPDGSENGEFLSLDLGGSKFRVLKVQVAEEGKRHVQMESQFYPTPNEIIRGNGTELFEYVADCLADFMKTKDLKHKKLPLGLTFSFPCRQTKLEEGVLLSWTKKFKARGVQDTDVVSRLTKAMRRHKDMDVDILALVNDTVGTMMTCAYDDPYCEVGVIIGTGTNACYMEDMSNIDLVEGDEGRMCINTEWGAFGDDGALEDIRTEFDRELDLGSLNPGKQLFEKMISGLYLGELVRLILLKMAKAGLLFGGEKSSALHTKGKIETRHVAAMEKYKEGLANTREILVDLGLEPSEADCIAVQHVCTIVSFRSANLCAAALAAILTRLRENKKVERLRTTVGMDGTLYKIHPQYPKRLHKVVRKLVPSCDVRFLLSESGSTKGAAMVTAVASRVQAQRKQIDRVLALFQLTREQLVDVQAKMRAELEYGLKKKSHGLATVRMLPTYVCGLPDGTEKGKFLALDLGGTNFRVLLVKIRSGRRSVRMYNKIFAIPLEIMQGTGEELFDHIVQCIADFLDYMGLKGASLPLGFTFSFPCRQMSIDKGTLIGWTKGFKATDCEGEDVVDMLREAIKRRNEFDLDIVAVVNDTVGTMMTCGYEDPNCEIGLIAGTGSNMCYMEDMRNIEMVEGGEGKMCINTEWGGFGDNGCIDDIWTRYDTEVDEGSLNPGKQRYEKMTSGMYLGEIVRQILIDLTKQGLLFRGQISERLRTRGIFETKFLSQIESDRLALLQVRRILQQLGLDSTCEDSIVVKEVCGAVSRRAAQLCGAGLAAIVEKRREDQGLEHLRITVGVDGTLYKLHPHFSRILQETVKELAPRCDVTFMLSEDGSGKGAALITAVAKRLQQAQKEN

[2] = alpha-synuclein stem-loop luciferase translation blockers – H4 neuroglioma cells, luminescence, confirmation (AID 1988); format: functional, cell-based
Bcl-2-related protein A1 = biological target: T2, Bcl-2-related protein A1 (Mus musculus, UniProt Q07440); experiment: small-molecule antagonists of Bfl-1/BH3 interaction – biochemical, TR-FRET, mouse Bfl-1, confirmation (AID 621);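 note: TR-FRET binding of GST-Bfl-1 to FITC-labelled Bid peptide via terbium antibody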
T2 sequence (Q07440 whole entry): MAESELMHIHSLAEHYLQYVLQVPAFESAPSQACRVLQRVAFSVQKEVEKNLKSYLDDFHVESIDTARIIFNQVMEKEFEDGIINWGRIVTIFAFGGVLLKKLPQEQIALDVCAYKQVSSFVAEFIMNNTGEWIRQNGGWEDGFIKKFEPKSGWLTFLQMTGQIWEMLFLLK

[3] = viability of HCT116 lacking mutant beta-catenin – cell-based, human colon tumor, dose response (AID 1045); format: functional;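 note: HCT116 colon tumor cells with beta catenin knocked out; cells exposed to compound for 60 hours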
[4] = loss of viability in HepG2 cells – cell-based, CellTiter-Glo, cherry-picked, cytotoxicity control for Shn3 inhibitor project, dose response (AID 624134); format: functional
[5] = viability loss in CEM21 cells – cell-based, CellTiter-Glo luminescence, cherry-picked, cytotoxicity control for viral fusion inhibitor project, dose response (AID 652042); format: functional;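 note: potency for signal decrease meaning cytotoxicity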
[6] = biological target: T3, 1-phosphatidylinositol 4,5-bisphosphate phosphodiesterase beta-3 (Homo sapiens, UniProt Q01970); experiment: Fluorescence-based biochemical high throughput dose response assay to identify inhibitors of phospholipase C isozymes (PLC-B3).
T3 sequence (Q01970 whole entry): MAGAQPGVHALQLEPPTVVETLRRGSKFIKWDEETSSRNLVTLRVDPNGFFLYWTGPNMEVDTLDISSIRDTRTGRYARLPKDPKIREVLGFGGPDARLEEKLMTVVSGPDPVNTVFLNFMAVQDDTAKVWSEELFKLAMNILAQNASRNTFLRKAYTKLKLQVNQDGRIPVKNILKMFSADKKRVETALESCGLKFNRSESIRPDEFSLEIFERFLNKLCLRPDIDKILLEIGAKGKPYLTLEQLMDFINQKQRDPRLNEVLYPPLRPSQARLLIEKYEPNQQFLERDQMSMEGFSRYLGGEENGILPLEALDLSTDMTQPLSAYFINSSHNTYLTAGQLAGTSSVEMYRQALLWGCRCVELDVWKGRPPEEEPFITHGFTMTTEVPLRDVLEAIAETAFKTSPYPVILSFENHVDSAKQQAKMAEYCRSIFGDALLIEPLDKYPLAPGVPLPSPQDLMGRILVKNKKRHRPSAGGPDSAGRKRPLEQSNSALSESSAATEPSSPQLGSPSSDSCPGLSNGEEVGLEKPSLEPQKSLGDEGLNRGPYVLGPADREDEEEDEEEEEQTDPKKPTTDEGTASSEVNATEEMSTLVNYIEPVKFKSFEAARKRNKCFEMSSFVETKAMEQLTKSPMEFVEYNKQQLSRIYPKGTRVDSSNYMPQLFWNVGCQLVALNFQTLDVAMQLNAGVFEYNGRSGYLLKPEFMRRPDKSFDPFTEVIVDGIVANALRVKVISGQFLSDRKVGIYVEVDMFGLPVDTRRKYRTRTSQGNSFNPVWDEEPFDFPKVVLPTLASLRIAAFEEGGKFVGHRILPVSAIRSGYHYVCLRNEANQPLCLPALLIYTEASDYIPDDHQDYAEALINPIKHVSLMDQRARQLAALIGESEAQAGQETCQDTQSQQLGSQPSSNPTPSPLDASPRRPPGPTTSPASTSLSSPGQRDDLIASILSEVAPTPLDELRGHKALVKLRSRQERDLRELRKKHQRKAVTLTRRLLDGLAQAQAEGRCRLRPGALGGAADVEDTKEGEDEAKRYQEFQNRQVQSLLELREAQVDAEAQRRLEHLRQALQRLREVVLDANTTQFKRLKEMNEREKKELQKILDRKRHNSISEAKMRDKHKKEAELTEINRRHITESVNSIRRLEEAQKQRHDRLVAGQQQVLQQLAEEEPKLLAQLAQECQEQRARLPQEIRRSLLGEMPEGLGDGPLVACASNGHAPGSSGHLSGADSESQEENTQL

[7] = viability loss in THP-1 monocytes – THP-1 cells, cytotoxicity control for Vif-APOBEC3G degradation inhibitor project, dose response (AID 1117359); format: functional; conditions: THP-1
[8] = biological target: High affinity nerve growth factor receptor (Homo sapiens, UniProt P04629); format: functional;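 note: NTRK1 tested as one member of a kinome-wide profiling panel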
[9] = biological target: MAP kinase-interacting serine/threonine-protein kinase 2 (Homo sapiens, UniProt Q9HBH9); format: functional
[10] = biological target: Cyclin-dependent kinase 1 (Homo sapiens, UniProt P06493); format: functional;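 note: Kinome-wide panel profiling, with the target listed as panel member CDC2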
[11] = biological target: Mitogen-activated protein kinase 13 (Homo sapiens, UniProt O15264); format: functional
Mitogen-activated protein kinase 13, sequence (O15264 whole entry): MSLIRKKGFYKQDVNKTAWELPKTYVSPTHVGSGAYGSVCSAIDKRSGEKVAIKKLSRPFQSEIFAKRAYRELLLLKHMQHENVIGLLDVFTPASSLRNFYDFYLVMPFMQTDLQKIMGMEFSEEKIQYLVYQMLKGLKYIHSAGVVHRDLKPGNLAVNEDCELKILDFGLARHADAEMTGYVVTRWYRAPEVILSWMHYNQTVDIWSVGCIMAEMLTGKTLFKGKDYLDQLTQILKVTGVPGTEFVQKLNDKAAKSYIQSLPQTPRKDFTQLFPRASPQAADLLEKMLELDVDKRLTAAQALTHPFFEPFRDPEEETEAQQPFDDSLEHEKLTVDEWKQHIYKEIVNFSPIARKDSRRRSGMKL

High affinity nerve growth factor receptor, sequence (P04629 whole entry): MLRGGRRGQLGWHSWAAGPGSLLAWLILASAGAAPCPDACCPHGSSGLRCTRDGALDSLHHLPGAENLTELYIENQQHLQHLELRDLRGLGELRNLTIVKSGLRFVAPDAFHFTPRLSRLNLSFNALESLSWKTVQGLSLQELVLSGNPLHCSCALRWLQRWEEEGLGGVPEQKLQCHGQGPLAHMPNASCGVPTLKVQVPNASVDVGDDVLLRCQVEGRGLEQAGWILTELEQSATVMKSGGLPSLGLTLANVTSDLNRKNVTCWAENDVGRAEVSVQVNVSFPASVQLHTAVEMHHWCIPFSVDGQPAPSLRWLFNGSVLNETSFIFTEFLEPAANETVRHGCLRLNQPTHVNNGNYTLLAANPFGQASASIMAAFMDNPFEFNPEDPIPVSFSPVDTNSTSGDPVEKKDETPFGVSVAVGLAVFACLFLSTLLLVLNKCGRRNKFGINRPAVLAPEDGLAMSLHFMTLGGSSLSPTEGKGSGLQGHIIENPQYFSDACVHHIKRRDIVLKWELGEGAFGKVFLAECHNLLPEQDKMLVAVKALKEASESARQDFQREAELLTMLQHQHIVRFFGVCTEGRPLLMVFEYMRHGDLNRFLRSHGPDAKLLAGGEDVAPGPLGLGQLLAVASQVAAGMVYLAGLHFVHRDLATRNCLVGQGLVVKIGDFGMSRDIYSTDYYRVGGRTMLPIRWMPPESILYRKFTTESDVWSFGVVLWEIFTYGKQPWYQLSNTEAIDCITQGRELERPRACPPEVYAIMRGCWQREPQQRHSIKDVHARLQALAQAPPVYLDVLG
MAP kinase-interacting serine/threonine-protein kinase 2, sequence (Q9HBH9 whole entry): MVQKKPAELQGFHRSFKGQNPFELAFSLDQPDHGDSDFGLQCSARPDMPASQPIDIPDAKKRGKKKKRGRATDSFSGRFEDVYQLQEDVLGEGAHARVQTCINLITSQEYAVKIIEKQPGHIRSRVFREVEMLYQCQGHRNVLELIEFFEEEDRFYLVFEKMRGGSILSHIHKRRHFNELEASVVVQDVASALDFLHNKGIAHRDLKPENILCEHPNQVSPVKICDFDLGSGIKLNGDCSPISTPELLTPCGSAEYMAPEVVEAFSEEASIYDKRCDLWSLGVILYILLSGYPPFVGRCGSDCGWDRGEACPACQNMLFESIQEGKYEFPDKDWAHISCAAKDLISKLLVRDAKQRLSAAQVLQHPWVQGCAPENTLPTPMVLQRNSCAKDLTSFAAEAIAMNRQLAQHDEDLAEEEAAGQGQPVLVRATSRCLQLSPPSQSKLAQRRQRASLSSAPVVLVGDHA
Cyclin-dependent kinase 1, sequence (P06493 whole entry): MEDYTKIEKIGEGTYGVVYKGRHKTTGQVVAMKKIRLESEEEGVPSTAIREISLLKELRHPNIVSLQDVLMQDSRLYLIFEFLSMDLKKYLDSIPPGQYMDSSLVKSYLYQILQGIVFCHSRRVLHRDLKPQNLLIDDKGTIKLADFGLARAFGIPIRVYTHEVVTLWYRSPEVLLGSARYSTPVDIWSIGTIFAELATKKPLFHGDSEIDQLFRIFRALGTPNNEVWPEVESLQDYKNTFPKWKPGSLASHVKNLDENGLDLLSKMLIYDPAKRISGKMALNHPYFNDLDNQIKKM

## O=C(O)c1ccc(NC2=C(Cl)C(=O)c3ccccc3C2=O)cc1
[1]
  EC50: 2.74 µM (active)
Hexokinase HKDC1
  EC50: 5.62 µM (active)

## O=C(O)c1ccc2c3c(ncnc13)-c1ccccc1C2=O
[2]
  EC50: 2.45 µM (active)
Bcl-2-related protein A1
  IC50: > 100 µM (not active)
[3]
  EC50: 13.4 µM (active)

## CCOC(=O)c1c2c(n(Cc3ccccc3)c1C)C(=O)C(=O)c1ccccc1-2
[4]
  AC50: 6.74 µM (active)
[5]
  AC50: 5.84 µM (active)
[6]
  IC50: > 123 µM (inactive)
[7]
  CC50: 0.87 µM (active)

## Cc1ccc2nccc(NC(=O)Nc3cccc(C(F)(F)F)n3)c2c1
[8]
  Ki: > 2.51 µM (inactive)
[9]
  Ki: > 10 µM (inactive)
[10]
  Ki: 0.501 µM (active)

## COc1cc2c(cc1F)C(c1ccccc1Cl)=Nc1c(n[nH]c1C)N2 [RG-1530]
[11]
  Ki: > 7.94 µM (inactive)
